Where a SMILES comes first, the peptide text is derived from it.
Assays:
M. smegmatis mc^2 155 [1] = test: Antibacterial activity, microscale optical density assay (MODA) / microporous dilution; format: cell-based, Mycobacterium smegmatis; parameters: key: -: no inhibitory activity; +: Inhibit the growth of less than 10% amount of the initial bacteria; ++: Inhibit the growth of less than 50% amount of the initial bacteria; +++: Inhibit the growth of initial bacteria completely; conditions: M. smegmatis mc2155, medium 7H9
Procedure: (§1) In this paper, the microporous dilution method was used to detect the antibacterial spectrum of pantocin wh-1 against Gram-negative and -positive bacteria. […] The time kill studies were determined over 8 h with M. smegmatis mc^2 155 being exposed to 0.5, 1, 2, or 4 × MIC of pantocin wh-1. […] At 2 × MIC and 4 × MIC, pantocin wh-1 caused bacterial eradication was completed approximately after 4 h.
(§2) The antibacterial activity of the pantocin wh-1 was detected by the microscale optical density assay (MODA) method. Briefly, 90 μL of the dilutions of pantocin wh-1, 100 μL 2 × 7H9 medium, and 10 μL of a log phase indicator strain were co-incubated in the 96-well plate at 37 °C for 48 h. For control groups, 90 μL of the dilutions of pantocin wh-1 were replaced by an equal volume of sterile water. After incubation, the 96 well microplate was measured by a microplate reader at a 600 nm wavelength (Biotek synergyH1, Biotek, Winooski, VT, USA). The amount of pantocin wh-1 produced by P. dispersa W18 was determined using two fold dilutions. […] The results were expressed in AU/mL. The MIC was defined as the last dilution of pantocin wh-1 sufficient to prevent indicator strain growth in vitro.

M. tuberculosis H37Ra = format: cell-based, Mycobacterium tuberculosis; parameters: key: -: no inhibitory activity; +: Inhibit the growth of less than 10% amount of the initial bacteria; ++: Inhibit the growth of less than 50% amount of the initial bacteria; +++: Inhibit the growth of initial bacteria completely; conditions: M. tuberculosis Ra, medium 7H9
M. smegmatis mc^2 155 [2] = test: Time kill study; format: cell-based, Mycobacterium smegmatis
Procedure: as §1
For detection of the time kill study, 100 μL of the indicator strain in exponential phase were added to tubes containing 5 mL of the modified 7H9 medium with pantocin wh-1 at 0.5, 1, 2, and 4 × MIC. No pantocin wh-1 was added in the control tube, then incubated at 37 °C for 8 h. At the end of each time period, tenfold serial dilutions were prepared with 0.5 mM phosphate buffer, and 100 μL cultures were plated in triplicate onto the 7H10 plates. For anti-tuberculosis activities in vivo, an auto-luminescent strain of M. tuberculosis H37Ra (AlRa) described by Tianyu Zhang was used to assess the efficacy of pantocin wh-1 in a mouse model. The relative light unit (RLU) count was determined to parallel CFU counts during the active phase of bacterial growth. AlRa with OD600 of 0.1 was injected into female BALB/c mice by tail vein. The day after injection (Day 0), RLU values were detected for 6 days in triplicate.

[3] = system: autoluminescent H37Ra (UAlRa); parameters: species or system BALB/c female mice; conditions: mouse, in vivo
proteinase K = proteinase K (Parengyodontium album, UniProt P06873); test: Effect of enzymes on antibacterial activity: proteinase K; format: in vitro ADME
Text: (§3) Furthermore, the antibacterial activity of pantocin wh-1 also retained nearly 100% of the initial activity within a broad pH range (pH 2–12).
(§4) The effect of various enzymes, pH, and temperature on pantocin wh-1 activity was detected as described by J.-M. Chobert et al. with a slight modification. Proteinase K, trypsin, catalase, lysozyme, DNAse, and RNAse were used to test the antibacterial activity of pantocinwh-1. To analyze the effect of different pH values on the antibacterial activity of pantocin wh-1, the sample of pantocin wh-1 was exposed to buffer with a pH value of 2–12 for 1 h at 25 °C. The effect of temperature on the anti-mycobacterial activity of pantocin wh-1 was determined by incubating pantocin wh-1 at 50 °C and 100 °C for 60 min, as well as at 121 °C for 15 min, and then detecting the bactericidal activity against M. smegmatis mc^2 155.

lysozyme = test: Effect of enzymes on antibacterial activity: lysozyme; format: in vitro ADME
Text: as §3, §4

DNase = test: Effect of enzymes on antibacterial activity: DNase; format: in vitro ADME
Text: as §3, §4

RNase = RNase (Bos taurus, UniProt P61823); test: Effect of enzymes on antibacterial activity: RNase; format: in vitro ADME
Text: as §3, §4

Dysgalactiae = test: Antimicrobial spectrum, microporous dilution method; format: cell-based; parameters: key: -: no inhibitory activity; +: Inhibit the growth of less than 10% amount of the initial bacteria; ++: Inhibit the growth of less than 50% amount of the initial bacteria; +++: Inhibit the growth of initial bacteria completely; conditions: medium BHI
Procedure: as §1, §2

P. aeruginosa = test: as above; format: cell-based; parameters: key: -: no inhibitory activity; +: Inhibit the growth of less than 10% amount of the initial bacteria; ++: Inhibit the growth of less than 50% amount of the initial bacteria; +++: Inhibit the growth of initial bacteria completely; conditions: medium LB
Procedure: as §1, §2

E. coli O157 = test: as above; format: cell-based; parameters: key: -: no inhibitory activity; +: Inhibit the growth of less than 10% amount of the initial bacteria; ++: Inhibit the growth of less than 50% amount of the initial bacteria; +++: Inhibit the growth of initial bacteria completely; conditions: E. coli O157, medium LB
Klebsiella = test: as above; format: cell-based
Procedure: as §1, §2

Sequence of RNase (P61823 27-150): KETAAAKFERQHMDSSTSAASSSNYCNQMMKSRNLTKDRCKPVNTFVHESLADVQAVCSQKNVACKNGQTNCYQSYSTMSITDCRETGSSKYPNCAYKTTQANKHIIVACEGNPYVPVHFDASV
Sequence of proteinase K (P06873 106-384): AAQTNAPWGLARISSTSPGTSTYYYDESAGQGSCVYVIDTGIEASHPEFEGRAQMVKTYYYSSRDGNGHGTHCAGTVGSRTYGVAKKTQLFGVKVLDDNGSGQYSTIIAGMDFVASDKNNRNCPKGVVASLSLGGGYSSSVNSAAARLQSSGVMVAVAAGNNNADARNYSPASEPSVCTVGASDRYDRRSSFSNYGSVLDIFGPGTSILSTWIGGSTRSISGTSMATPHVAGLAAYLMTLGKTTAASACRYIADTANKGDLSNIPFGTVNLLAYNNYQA

**Q.** How did the Inhibition activity (M. smegmatis mc^2 155 [1]) turn out when `CSCC[C@@H]1NC(=O)[C@H](C(C)C)NC(=O)[C@H](Cc2c[nH]c3ccccc23)NC(=O)[C@H](C(C)C)NC(=O)[C@H](C)NC(=O)[C@H](CS)NC(=O)[C@H](CC(N)=O)NC(=O)[C@H](Cc2ccccc2)NC(=O)CNC(=O)[C@H](Cc2ccc(O)cc2)NC(=O)CNC(=O)[C@H](Cc2ccccc2)NC(=O)[C@H](C(C)C)NC(=O)[C@H](Cc2ccc(O)cc2)NC(=O)[C@H](CS)NC(=O)[C@H](Cc2c[nH]c3ccccc23)NC1=O` [pantocin wh-1] (cyclo(AVWVMWCYVFGYGFNC)) was run?
**A.** +++

**Q.** And the Inhibition activity (M. tuberculosis H37Ra)?
**A.** +++

**Q.** What about the “decline in colony forming units (CFU)” value (M. smegmatis mc^2 155 [2]; 0.5 and 1 × MIC, within the first 2 h, followed by bacterial regeneration to near the initial concentration) of the same compound?
**A.** > 3 log

**Q.** And the “time to completed bacterial eradication” value (M. smegmatis mc^2 155 [2]; 2 × MIC and 4 × MIC)?
**A.** ~4 h

**Q.** What about the “relative light unit (RLU) value” [3] of the same compound?
**A.** significant decrease

**Q.** What about the “therapeutic effect compared with streptomycin” value [3] of the same compound?
**A.** did not exceed that of streptomycin

**Q.** What about the “inhibitory activity after proteinase K” value (proteinase K) of the same compound?
**A.** inactivated completely

**Q.** And the “antibacterial activity after lysozyme” value (lysozyme; lysozyme)?
**A.** insensitive

**Q.** And the Residual activity (lysozyme; lysozyme treatment, compared with antimicrobial activity before the treatment)?
**A.** 100%

**Q.** And the “antibacterial activity after DNase I” value (DNase; DNase I)?
**A.** insensitive

**Q.** And the Residual activity (DNase; DNase treatment, compared with antimicrobial activity before the treatment)?
**A.** 100%

**Q.** And the “antibacterial activity after RNase A” value (RNase; RNase A)?
**A.** insensitive

**Q.** What about the Residual activity (RNase; RNase treatment, compared with antimicrobial activity before the treatment) of the same compound?
**A.** 100%

**Q.** What about the Inhibition activity (Dysgalactiae) of the same compound?
**A.** -

**Q.** And the Inhibition activity (P. aeruginosa)?
**A.** -

**Q.** And the Inhibition activity (E. coli O157)?
**A.** -

**Q.** And the “inhibitory activity” value (Klebsiella)?
**A.** partial inhibitory activity

**Q.** What about the “activity after pepsin” value (pepsin) of the same compound?
**A.** not completely inactivated

Source: article PMC7036871, “Identification and Characterization of pantocin wh-1, a Novel Cyclic Polypeptide Produced by Pantoea dispersa W18” (Molecules, 2020)
